We go through 22 compounds from patent US8518958B2, “Pyrido [2,3-D] pyrimidines and their use as kinase inhibitors” (Forma Therapeutics, Inc., priority 2006, dated 2013).

The subject of assay [1] is HT-29 tumor cells. Kind of assay: Anti-proliferative activity, SRB assay. It is filed as cell-based, human. As to conditions: Homo sapiens, HT-29, 72 h, 72 hours exposure, read-out: CELLULAR IC50 HT-29. How it is done: We observed the surprising finding that compounds of the invention were useful in inhibiting proliferation of HT-29 tumor cells (see Table 3).
3,000-15,000 cells/well were exposed to the test compounds at various concentrations appropriate to determine an IC50, for 72 hours, and cell proliferation was measured using the SRB assay according to Shekan et al (J Natl Cancer Inst (1990) 82, 1107-112) in order to estimate the IC50 values shown in Table 3. Briefly, cells were plated in 96 well dishes 24 hours prior to compound addition. The assay was terminated with the addition of cold TCA to a final concentration of 10% and the plates were incubated for one hour at 4° C. The plates were then washed 5 times with water and 100 μl of a Sulforhodamine B solution (4%) was added to each well. The plate was then incubated for 10 minutes at room temperature before removal of unbound dye by washing with 1% acetic acid. The bound dye was solubilized with 10 mM Trizma base and the absorbance read at OD570. Inhibitory activity of the compounds was calculated as % inhibition of cell proliferation compared to cells treated with the solvent (DMSO).

Assay [2] addresses B-Raf delta1-415 (Homo sapiens, UniProt P15056). Kind of assay: B-Raf kinase inhibition (MAPH filter plate, 33P-ATP, MEK1 substrate). The conditions noted are these: read-out: Biochemical IC50 B-Raf. The text has this:
We characterized the in vitro inhibitory activity against protein kinases of compounds of the present invention by determining their IC50 values (see Table 2).
Kinase: B-Raf delta1-415 (e.g., Upstate Cat. No. 14-530)
Reaction Temperature: room temperature
Assay Plate: 96 well U bottom plate (Greiner, 650161)
MultiScreen-PH Plate: 96 well MAPH Filter Plates (Millipore, MAPHNOB50)
Filter Washing Solution: 0.75% H3PO4
Szintilation Liquid: Supermix Liquid Szintillator (PerkinElmer, 1200-439)
Negative Control (C−): 100 mM EDTA, no Inhibitor
Positive Control (C+): no Inhibitor
Reaction Buffer: 20 mM Mops, pH 7.0 • 10 mM MgCl2 • 0.4 mM MnCl2 • 100 mM NaCl • 1 mM DTT • 0.01% NP40
Final Assay Concentrations:
Kinase: Kinase conc. yielding 50% substrate turnover as determined in titration experiment.
Adenosine 5′-[γ-^33P]triphosphate: 12.5 μCi/ml (Amersham Biosciences, BF1000)
Pipetting Sequence: • 1) Add 10 μl 4-fold concentrated substrate in 3-fold concentrated reaction buffer to each well of assay plate • 2) Add 10 μl 4-fold concentrated inhibitor in 4% DMSO in H2O to each well except to C− and C+ wells (starting point: final inhibitor concentration 10 μM; IC50 determination based on dilution series) • 3) Add 10 μl 4% DMSO in H2O to C− and C+ wells • 4) Add 10 μl 500 mM EDTA in H2O to C− wells • 5) Add 10 μl 50 μCi/ml adenosine 5′-[γ-^33P]triphosphate in H2O+4-fold cold ATP to each well • 6) Add 10 μl 4-fold concentrated kinase in reaction buffer to each well • 7) Incubate 1 hr at room temperature • 8) Add 10 μl 50 mM EDTA in H2O to each well except to C− wells • 9) Prepare MAPH plates by adding 200 μl 0.75% H3PO4 to each well • 10) Exhaust 0.75% H3PO4 using Millipore vacuum station • 11) Add 60 μl 0.75% H3PO4 to each well of MAPH filter plate • 12) Transfer 30 μl sample per well from assay plate to corresponding well of MAPH filter plate • 13) Incubate 30 min at room temperature • 14) Wash each well of MAPH filter plates 3× with 200 μl 0.75% H3PO4 using Millipore vacuum station • 15) Add 20 μl scintillation liquid to each well of MAPH filter plate • 16) Seal MAPH filter plate • 17) Store MAPH filter plate 30 min in darkness • 18) Quantify radioactivity using scintillation counter (MicroBeta, Perkin-Elmer)

Structures are written as SMILES. Where only a bound is given, the exact number is not on record here.

B-Raf delta1-415, sequence (P15056 416-766): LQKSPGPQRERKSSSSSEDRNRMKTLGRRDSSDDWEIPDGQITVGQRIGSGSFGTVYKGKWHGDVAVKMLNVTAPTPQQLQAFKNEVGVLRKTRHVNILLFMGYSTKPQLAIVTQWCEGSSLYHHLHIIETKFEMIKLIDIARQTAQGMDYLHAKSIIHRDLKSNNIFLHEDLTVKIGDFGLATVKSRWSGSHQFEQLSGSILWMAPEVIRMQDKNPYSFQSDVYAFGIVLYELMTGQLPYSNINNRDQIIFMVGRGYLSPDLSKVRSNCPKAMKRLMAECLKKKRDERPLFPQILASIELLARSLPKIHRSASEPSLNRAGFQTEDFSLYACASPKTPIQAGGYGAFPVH

The term IC50 denotes the concentration at which inhibition is half-maximal. Take `COn1c(=O)c(-c2c(Cl)cccc2Cl)cc2cnc(Nc3ccc(CC(=O)NCCN4CCCC4)cc3)nc21` [Compound 115, 6-(2,6-Dichlorophenyl)-8-methoxy-2-(4-(2-pyrrolidinoethylaminocarbon-ylmethyl)phenyl)-amino-pyrido[2,3-d]pyrimidin-7-one]: the half-maximal inhibitory concentration (IC50) in assay [1] was less than 1 µM; in assay [2] it was less than 0.5 µM.
In the same order, the values of `COn1c(=O)c(-c2c(Cl)cccc2Cl)cc2cnc(Nc3ccc(CN4CC(O)C4)cc3)nc21` [Compound 168] are less than 1 µM and less than 0.5 µM.
`CCN(CC)CCNC(=O)c1cc(Nc2ncc3cc(-c4c(C)cccc4C)c(=O)n(OC)c3n2)cn1C` [Compound 84, 6-(2,6-Dimethylphenyl)-2-(5-(2-diethylaminoethyl)aminocarbonyl-1-methyl-pyrrol-3-yl)-amino-8-methoxy-pyrido[2,3-d]pyrimidin-7-one]: the 50% inhibitory concentration (IC50) in assay [1] was less than 1 µM; in assay [2], less than 0.5 µM.
For `O=c1c(-c2c(Cl)cccc2Cl)cc2cnc(Nc3ccccc3)nc2n1OCc1cccnc1` [Compound 165, 6-(2,6-Dichlorophenyl)-2-phenylamino-8-(pyrid-3-ylmethyl)oxy-pyrido[2,3-d]pyrimidin-7-one] the same measures were less than 1 µM and less than 0.5 µM.
Turning to `COn1c(=O)c(-c2c(Cl)cccc2Cl)cc2cnc(Nc3ccc(Br)cc3)nc21` [Compound 191, 2-(4-Bromophenyl)amino-6-(2,6-dichlorophenyl)-8-methoxy-pyrido[2,3-d]pyrimidin-7-one], the IC50 in assay [1] was less than 10 µM; in assay [2] it was more than 1 µM.
For `COCCOn1c(=O)c(-c2cc(NC(=O)c3cccc(C(F)(F)F)c3)ccc2Cl)cc2cnc(Nc3ccc(N4CCN(C)CC4)cc3)nc21` [Compound 107, 8-(2-Methoxyethyl)oxy-2-(4-(4-methylpiperazino)-6-(5-(3-trifluoromethylbenzoyl)amino-2-chloro-phenyl)-phenylamino)-pyrido[2,3-d]pyrimidin-7-one] the same measures were less than 1 µM and less than 0.1 µM.
In the same order, the values of `COn1c(=O)c(-c2c(Cl)cccc2Cl)cc2cnc(Nc3cc[nH]n3)nc21` [Compound 88, 6-(2,6-Dichlorophenyl)-8-methoxy-2-(pyrazol-3-yl)-amino-pyrido[2,3-d]pyrimidin-7-one] are less than 10 µM and less than 0.5 µM.
Take `CCCN1CCN(c2ccc(Nc3ncc4cc(-c5c(Cl)cccc5Cl)c(=O)n(OCCOC)c4n3)cc2)CC1` [Compound 207, 2-(4-(4-propylpiperazino)phenyl)-amino-6-(2,6-dichlorophenyl)-8-(2-methoxyethyl)oxy-pyrido[2,3-d]pyrimidin-7-one]: the IC50 was less than 1 µM in assay [1] and less than 0.5 µM in assay [2].
In the same order, the values of `COn1c(=O)c(-c2c(Cl)cccc2Cl)cc2cnc(Nc3ccc(N4CCN(C(C)C)CC4)cc3)nc21` [Compound 187] are less than 1 µM and less than 0.5 µM.
For `COCCOn1c(=O)c(-c2cc(NC(=O)c3ccccc3)ccc2Cl)cc2cnc(Nc3ccc(N4CCN(C)CC4)cc3)nc21` [Compound 106, 6-(5-Benzoylamino-2-chloro-phenyl)-8-(2-methoxyethyl)oxy-2-(4-(4-methylpiperazino)-phenylamino)-pyrido[2,3-d]pyrimidin-7-one], the half-inhibitory concentration (IC50) in assay [1] is less than 1 µM; in assay [2], less than 0.5 µM.
In the same order, the values of `COn1c(=O)c(-c2c(Cl)cccc2Cl)cc2cnc(Nc3cc(C(=O)N(C)CCOC(=O)C(C)(C)C)n(C)c3)nc21` [Compound 140, 6-(2,6-Dichlorophenyl)-8-methoxy-2-(5-N-(2-(2,2-dimethylpropanoyl)oxyethyl)-N-methyl-aminocarbonyl-1-methyl-pyrrol-3-yl)-amino-pyrido[2,3-d]pyrimidin-7-one] are less than 1 µM and less than 0.5 µM.
As to `COn1c(=O)c(-c2c(Cl)cccc2Cl)cc2cnc(Nc3ccc(Cc4n[nH]c(C)n4)cc3)nc21` [Compound 151, 6-(2,6-Dichlorophenyl)-8-methoxy-2-(4-(5-methyl-1,2,4-triazol-3-yl)methylphenyl)-amino-pyrido[2,3-d]pyrimidin-7-one], the figures for the IC50 in assay [1] and in assay [2] were less than 1 µM and less than 0.5 µM, respectively.
With `COc1cccc(Nc2ncc3cc(-c4c(F)cccc4Cl)c(=O)n(OC[C@H](O)CO)c3n2)c1` [Compound 76, 6-(2-Chloro-6-fluorophenyl)-8-(2-(R)-2,3-dihydroxypropyl)oxy-2-(3-methoxyphenyl)amino-pyrido[2,3-d]pyrimidin-7-one], the IC50 was less than 1 µM in assay [1] and less than 0.5 µM in assay [2].
In the same order, the values of `COn1c(=O)c(-c2c(Cl)cccc2Cl)cc2cnc(NCCOC(=O)[C@@H](N)C(C)C)nc21` [Compound 109, 2-((2-(S)-2-Amino-3-methylbutanoyloxy)ethyl)-amino-6-(2,6-dichlorophenyl)-8-methoxy-pyrido[2,3-d]pyrimidin-7-one] are less than 10 µM and less than 0.5 µM.
For `CC(C)N1CCN(c2ccc(Nc3ncc4cc(-c5c(Cl)cccc5Cl)c(=O)n(OCC5CCOCC5)c4n3)cc2)CC1` [Compound 206, 6-(2,6-Dichlorophenyl)-8-(tetrahydropyran-4-ylmethyl)oxy-2-(4-(4-(1-methylethyl)piperazino)phenyl)-amino-pyrido[2,3-d]pyrimidin-7-one] the same measures were less than 1 µM and less than 0.5 µM.
In the same order, the values of `COn1c(=O)c(-c2c(Cl)cccc2Cl)cc2cnc(Nc3ccc(CN4CCC[C@H]4CO)cc3)nc21` [Compound 169, 6-(2,6-Dichlorophenyl)-2-(4-(2-(S)-hydroxymethyl-pyrrolidinomethyl)phenyl)-amino-8-methoxy-pyrido[2,3-d]pyrimidin-7-one] are less than 1 µM and less than 0.5 µM.
Regarding `O=c1c(-c2c(F)cccc2Cl)cc2cnc(Nc3ccc(N4CCOCC4)cc3)nc2n1OC[C@@H]1CCNC1` [Compound 149], the IC50 is less than 1 µM in assay [1] and less than 0.1 µM in assay [2].
For `COn1c(=O)c(-c2c(Cl)cccc2Cl)cc2cnc(Nc3cccc(CN4CCC(F)(F)C4)c3)nc21` [Compound 183, 6-(2,6-Dichlorophenyl)-2-(3-(3,3-difluoropyrrolidinomethyl)phenyl)-amino-8-methoxy-pyrido[2,3-d]pyrimidin-7-one] the same measures were less than 1 µM and more than 1 µM.
For `COCCOn1c(=O)c(-c2c(F)cccc2Cl)cc2cnc(Nc3ccc(N4CCNCC4)cc3)nc21` [Compound 216, 6-(2-Chloro-6-fluorophenyl)-8-(2-methoxyethyl)oxy-2-(4-piperazinophenyl)-amino-pyrido[2,3-d]pyrimidin-7-one] the same measures were less than 1 µM and less than 0.5 µM.
For `CCN(CC)CCNC(=O)c1cc(Nc2ncc3cc(-c4c(Cl)cccc4Cl)c(=O)n(OC)c3n2)cn1C` [Compound 81, 6-(2,6-Dichlorophenyl)-2-(5-(2-diethylaminoethyl)aminocarbonyl-1-methyl-pyrrol-3-yl)-amino-8-methoxy-pyrido[2,3-d]pyrimidin-7-one] the same measures were less than 1 µM and less than 0.5 µM.
`CCCN1CCN(c2ccc(Nc3ncc4cc(-c5c(Cl)cccc5Cl)c(=O)n(OC)c4n3)cc2)CC1` [Compound 204, 6-(2,6-Dichlorophenyl)-8-methoxy-2-(4-(4-propylpiperazino)phenyl)-amino-pyrido[2,3-d]pyrimidin-7-one]: the IC50 in assay [1] is less than 1 µM; in assay [2], less than 0.1 µM.
In the same order, the values of `COn1c(=O)c(-c2c(Cl)cccc2Cl)cc2cnc(Nc3ccc(C(C)=O)cc3)nc21` [Compound 192, 2-(4-Acetylphenyl)amino-6-(2,6-dichlorophenyl)-8-methoxy-pyrido[2,3-d]pyrimidin-7-one] are less than 1 µM and less than 0.5 µM.
